From the CheMixHub viscosity set
Several values for one entry are separate records, joined by “and”; a condition that tells them apart may be missing. Equal entries are not always repeated.

Assays:
[1] = xn = mol fraction of the nth substance listed

C1CCCCCCC1
101 kPa
Conditions	viscosity
298.15 K	2.25 mPa·s
303 K	2.007 mPa·s
303.15 K	2.031 mPa·s
308.15 K	1.818 mPa·s (2×) and 1.818 mPa·s
313.15 K	1.649 mPa·s and 1.692 mPa·s

CC(=O)CC(C)(C)O
Conditions	viscosity [mPa·s]
298.15 K, 101 kPa	2.902

CC(=O)O.NCCO
viscosity
Conditions	293.15 K	298.15 K	303.15 K	308.15 K	313.15 K	318.15 K	323.15 K
101 kPa	5032 mPa·s	3167 mPa·s	2044 mPa·s	1369 mPa·s	947.7 mPa·s	661 mPa·s	477.5 mPa·s
101.3 kPa	3423 mPa·s	2300 mPa·s and 2300 mPa·s and 2267 mPa·s	1502 mPa·s	1021 mPa·s	711.1 mPa·s	506.5 mPa·s	368.3 mPa·s

CC(C)=CC(=O)C=C(C)C
Conditions	viscosity [mPa·s]
298.15 K, 101 kPa	1.394

CC(C)CC(C)O (configuration not stated)
Conditions	viscosity
298.15 K, 101.33 kPa	3.823 mPa·s and 3.823 mPa·s

CC/C=C\CCO
100 kPa
Conditions	viscosity [mPa·s]
293.15 K	3.336
298.15 K	2.921
303.15 K	2.566
308.15 K	2.266
313.15 K	2.012
318.15 K	1.807

CC1(C)OCC(CO)O1 (configuration not stated)
101 kPa
Conditions	viscosity [mPa·s]
298.15 K	9.643
308.15 K	6.834
318.15 K	5.076

CCCCC
viscosity
Conditions	100 kPa	101 kPa	101.33 kPa
293.15 K	0.222 mPa·s	–	–
298.15 K	0.212 mPa·s	0.2121 mPa·s and 0.214 mPa·s	0.223 mPa·s and 0.223 mPa·s and 0.237 mPa·s

CCCCC(=O)OCC
101.33 kPa
Conditions	viscosity [mPa·s]
293.15 K	0.846
303.15 K	0.694
313.15 K	0.629

CCCCCCCCCC
viscosity
Conditions	293.15 K	298.15 K	303.15 K	308.15 K	313.15 K	318.15 K	323.15 K
100 kPa	0.928 mPa·s and 0.918 mPa·s	0.853 mPa·s and 0.874 mPa·s	0.807 mPa·s and 0.795 mPa·s (2×) and 0.791 mPa·s	0.745 mPa·s and 0.744 mPa·s	0.691 mPa·s and 0.7 mPa·s (2×) and 0.699 mPa·s	0.66 mPa·s and 0.659 mPa·s	0.624 mPa·s
101 kPa	–	–	0.802 mPa·s and 0.803 mPa·s	–	0.6883 mPa·s	0.66 mPa·s and 0.6182 mPa·s and 0.6466 mPa·s	0.6085 mPa·s
101.32 kPa	0.91 mPa·s	–	0.785 mPa·s	–	–	–	–
101.33 kPa	0.91 mPa·s	–	0.774 mPa·s and 0.793 mPa·s and 0.755 mPa·s	–	0.673 mPa·s	0.619 mPa·s	–
103 kPa	–	0.842 mPa·s	–	0.727 mPa·s	–	0.64 mPa·s	–

CCCCCCCO
viscosity
Conditions	100 kPa	101 kPa	101.3 kPa	101.33 kPa
293.15 K	7.018 mPa·s	–	7.079 mPa·s	–
298 K	5.956 mPa·s	–	–	–
298.15 K	–	–	5.758 mPa·s	5.69 mPa·s and 5.652 mPa·s
303 K	4.778 mPa·s	–	–	–
303.15 K	5.014 mPa·s	4.996 mPa·s and 4.783 mPa·s	4.814 mPa·s and 4.785 mPa·s	–
308.15 K	4.275 mPa·s	4.176 mPa·s and 4.691 mPa·s and 4.069 mPa·s	4.2 mPa·s and 4.051 mPa·s and 4.691 mPa·s	4.002 mPa·s and 4.045 mPa·s and 4.175 mPa·s
313 K	3.228 mPa·s	3.55 mPa·s	–	–
313.15 K	3.656 mPa·s and 3.702 mPa·s and 3.735 mPa·s	3.723 mPa·s and 4.598 mPa·s	3.579 mPa·s	–
318.15 K	3.407 mPa·s	–	3.447 mPa·s	–
323 K	2.529 mPa·s	–	–	–
323.15 K	2.741 mPa·s and 2.8 mPa·s	–	–	2.741 mPa·s and 2.741 mPa·s

CCCCCCn1cc[n+](C)c1.O=S(=O)([N-]S(=O)(=O)C(F)(F)F)C(F)(F)F
viscosity
Conditions	293.15 K	298.15 K	303.15 K	308.15 K	313.15 K	318.15 K	323.15 K
100 kPa	89 mPa·s and 85.15 mPa·s	65.94 mPa·s	51.91 mPa·s	41.36 mPa·s	33.79 mPa·s	–	–
101 kPa	–	–	58.3 mPa·s	50.4 mPa·s	41.4 mPa·s	35 mPa·s	28.8 mPa·s

CCCCN(CCC#N)CCCC
Conditions	viscosity [mPa·s]
303.15 K, 100 kPa	2.5

CCN(CC)CCO
viscosity
Conditions	298.15 K	303.15 K	313.15 K	323.15 K
101.3 kPa	–	3.308 mPa·s	2.414 mPa·s	1.466 mPa·s
101.33 kPa	4.022 mPa·s and 4.01 mPa·s	3.308 mPa·s	2.414 mPa·s	–

CCN(CC)S(C)(=O)=O
Conditions	viscosity [mPa·s]
303.15 K, 101.33 kPa	40590

COP(=O)([O-])OC.C[N+]1(CCO)CCCC1
100 kPa
Conditions	viscosity [mPa·s]
293.15 K	1452
298.15 K	980.6
303.15 K	687.4
308.15 K	496.1
313.15 K	366
318.15 K	272.8
323.15 K	210.2

CS(C)=O
Conditions	viscosity
293.15 K, 100 kPa	2.11 mPa·s and 2.23 mPa·s and 2.239 mPa·s
298 K, 101.3 kPa	2.024 mPa·s
298.15 K, 101 kPa	1.79 mPa·s
298.15 K, 101.3 kPa	1.944 mPa·s and 1.926 mPa·s
298.15 K, 101.33 kPa	1.848 mPa·s
299 K, 101 kPa	3.143 mPa·s
302.4 K, 101 kPa	3.676 mPa·s
303.15 K, 100 kPa	1.79 mPa·s
303.15 K, 101.3 kPa	1.788 mPa·s and 1.788 mPa·s (2×) and 1.788 mPa·s
308.15 K, 100 kPa	1.63 mPa·s
308.15 K, 101.33 kPa	1.498 mPa·s
313.15 K, 100 kPa	1.5 mPa·s
313.15 K, 101.33 kPa	1.449 mPa·s and 1.619 mPa·s
318.15 K, 101.3 kPa	1.31 mPa·s and 1.31 mPa·s
318.15 K, 101.33 kPa	1.317 mPa·s
323.15 K, 101.3 kPa	1.284 mPa·s
323.15 K, 101.33 kPa	1.221 mPa·s and 1.433 mPa·s

C[N+](C)(C)CCC[n+]1ccccc1.N#C[N-]C#N.N#C[N-]C#N
100 kPa
Conditions	viscosity
293.15 K	2191 mPa·s and 2191 mPa·s
298.15 K	1306 mPa·s
303.15 K	830.8 mPa·s and 830.8 mPa·s
308.15 K	557.7 mPa·s
313.15 K	386 mPa·s and 386 mPa·s
318.15 K	280.7 mPa·s
323.15 K	210.2 mPa·s and 210.2 mPa·s

OC1CCCCC1
viscosity
Conditions	293.15 K	298.15 K	303.15 K	308 K	308.15 K	313.15 K	318.15 K	318.16 K	323.15 K
100 kPa	83.29 mPa·s	58.97 mPa·s	43.42 mPa·s	–	33.66 mPa·s and 32.39 mPa·s	25.52 mPa·s and 25.85 mPa·s	20.14 mPa·s	19.5 mPa·s	–
101 kPa	–	–	23.6 mPa·s and 39.55 mPa·s	27.95 mPa·s	27.95 mPa·s	–	–	–	8.89 mPa·s

CC(=O)CC(C)(C)O + OCc1ccccc1
[1], 298.15 K, 101 kPa
Conditions	viscosity [mPa·s]
x2 = 0.0518	2.886
x2 = 0.1087	3.021
x2 = 0.1705	3.199
x2 = 0.2406	3.41
x2 = 0.3325	3.67
x2 = 0.3445	3.703
x2 = 0.4344	3.968
x2 = 0.5378	4.295
x2 = 0.6345	4.596
x2 = 0.7171	4.831
x2 = 0.7554	4.935
x2 = 0.8122	5.096
x2 = 0.878	5.303
x2 = 0.9123	5.42
x2 = 0.9146	5.43

OC1CCCCC1 + Oc1ccccc1
[1], 298.15 K, 101.3 kPa
Conditions	viscosity [mPa·s]
x1 = 0.79	27.6
x1 = 0.89	37.1

CCC(N)=O + [Al+3].[Cl-].[Cl-].[Cl-]
viscosity [mPa·s], [1], 101 kPa
Conditions	x2 = 0.5	x2 = 0.52	x2 = 0.57	x2 = 0.6	x2 = 0.63
313 K	32.65	25.38	23.95	24.65	25.32
323 K	23.49	19.12	17.93	18.32	18.7

C1CCCCCCC1 + c1ccccc1
[1], 303.15 K, 101 kPa
Conditions	viscosity [mPa·s]
x1 = 0.1002	0.5993
x1 = 0.2	0.6484
x1 = 0.2967	0.7078
x1 = 0.3983	0.788
x1 = 0.4982	0.8861
x1 = 0.6999	1.179
x1 = 0.8961	1.654

CCCCC + c1ccccc1
[1], 298.15 K, 101.33 kPa
Conditions	viscosity [mPa·s]
x2 = 0.1622	0.241
x2 = 0.3515	0.274
x2 = 0.4439	0.295
x2 = 0.5608	0.328
x2 = 0.6851	0.375
x2 = 0.8001	0.434
x2 = 0.9056	0.505

CCCCCCCO + c1ccccc1
viscosity [mPa·s], [1], 100 kPa
Conditions	x2 = 0.0864	x2 = 0.1561	x2 = 0.2397	x2 = 0.3469	x2 = 0.4396	x2 = 0.5661	x2 = 0.6446	x2 = 0.7517	x2 = 0.8493	x2 = 0.9561
293.15 K	5.514	4.58	3.709	2.802	2.132	1.412	1.117	0.875	0.766	0.681
303.15 K	3.992	3.302	2.668	2.018	1.568	1.053	0.859	0.703	0.625	0.573
313.15 K	2.947	2.439	1.973	1.501	1.172	0.822	0.679	0.573	0.525	0.498
323.15 K	2.279	1.918	1.573	1.203	0.942	0.665	0.556	0.479	0.442	0.437

CS(C)=O + c1ccccc1
viscosity [mPa·s], [1], 101.3 kPa
Conditions	x1 = 0.1043	x1 = 0.2048	x1 = 0.3059	x1 = 0.4069	x1 = 0.5105	x1 = 0.6085	x1 = 0.7063	x1 = 0.8049	x1 = 0.9029
298.15 K	0.669	0.743	0.829	0.923	1.036	1.169	1.317	1.492	1.712
303.15 K	0.622	0.69	0.766	0.853	0.955	1.071	1.207	1.367	1.562
308.15 K	0.581	0.643	0.714	0.796	0.884	0.99	1.111	1.258	1.426

CCC(N)=O + c1ccncc1
[1], 298.15 K, 101 kPa
Conditions	viscosity [mPa·s]
x1 = 0.0852	1.047
x1 = 0.1462	1.208
x1 = 0.2521	1.615
